Like-named read-outs stand apart in the source and are kept apart here.
Target: T1, GLUT1 (Homo sapiens, UniProt P11166)
T1 sequence (P11166 1-492): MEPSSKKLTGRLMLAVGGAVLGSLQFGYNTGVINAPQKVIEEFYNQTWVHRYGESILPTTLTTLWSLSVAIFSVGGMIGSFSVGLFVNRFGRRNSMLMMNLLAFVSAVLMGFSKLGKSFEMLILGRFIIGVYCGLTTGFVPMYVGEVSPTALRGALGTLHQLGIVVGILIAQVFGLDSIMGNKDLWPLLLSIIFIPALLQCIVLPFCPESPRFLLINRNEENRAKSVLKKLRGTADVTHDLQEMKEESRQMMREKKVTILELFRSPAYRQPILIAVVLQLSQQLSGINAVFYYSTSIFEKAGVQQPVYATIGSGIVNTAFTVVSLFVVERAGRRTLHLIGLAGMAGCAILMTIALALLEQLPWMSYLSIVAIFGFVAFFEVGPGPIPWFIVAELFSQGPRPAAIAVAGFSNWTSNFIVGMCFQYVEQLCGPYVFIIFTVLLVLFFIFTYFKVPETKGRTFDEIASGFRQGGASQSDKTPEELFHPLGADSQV
Test: Indirect measurement of GLUT1 activity by quantification of intracellular ATP levels (glucose induced ATP increase)
Assay type: cell-based
Set-up: endogenous in cells; host or cells: DLD1 or CHO-K1
Settings: read-out: IC50 regarding glucose induced ATP increase (GLUT1 inhibition)
How it was run: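 DLD1 or CHO-K1 cells were starved overnight in glucose-free medium with 1% FCS, then combined with an oxidative phosphorylation inhibitor. GLUT1 activity was read as glucose-induced ATP increase, GLUT2 as fructose-induced. Intracellular ATP was quantified by CellTiter-Glo luminescence.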

## Cc1cc(Cn2nc(C(F)(F)F)c(NC(=O)c3cc(C(N)=O)nc4cc(F)c(Cl)cc34)c2C)on1 [Example 420, 6-chloro-7-fluoro-N^4-{5-methyl-1-[(3-methyl-1,2-oxazol-5-yl)methyl]-3-(trifluoromethyl)-1H-pyrazol-4-yl}quinoline-2,4-dicarboxamide]
  IC50: 4.9 nM

## Cc1c(NC(=O)c2cc(C(N)=O)nc3cc(F)c(Cl)cc23)c(C(F)(F)F)nn1Cc1ccc(C#N)s1 [Example 421, 6-chloro-N^4-{1-[(5-cyano-2-thienyl)methyl]-5-methyl-3-(trifluoromethyl)-1H-pyrazol-4-yl}-7-fluoroquinoline-2,4-dicarboxamide]
  IC50: 2.9 nM

## Cc1nn(Cc2ccc(C#N)s2)c(C)c1NC(=O)c1cc(C(N)=O)nc2cc(F)ccc12 [Example 422]
  IC50: 5 nM

## Cc1c(NC(=O)c2cc(C(N)=O)nc3cc(F)ccc23)c(C(F)(F)F)nn1Cc1ncc(C#N)cn1 [Example 423, N^4-{1-[(5-cyanopyrimidin-2-yl)methyl]-5-methyl-3-(trifluoromethyl)-1H-pyrazol-4-yl}-7-fluoroquinoline-2,4-dicarboxamide]
  IC50: 6.7 nM

## Cc1c(NC(=O)c2cc(C(N)=O)nc3cccc(F)c23)c(C(F)(F)F)nn1Cc1ncc(C#N)cn1 [Example 424, N^4-{1-[(5-cyanopyrimidin-2-yl)methyl]-5-methyl-3-(trifluoromethyl)-1H-pyrazol-4-yl}-5-fluoroquinoline-2,4-dicarboxamide]
  IC50: 6.7 nM

## Cc1c(NC(=O)c2cc(C(N)=O)nc3ccc(O)cc23)c(C(F)(F)F)nn1Cc1ccc(C#N)cc1 [Example 425, N^4-[1-(4-cyanobenzyl)-5-methyl-3-(trifluoromethyl)-1H-pyrazol-4-yl]-6-hydroxyquinoline-2,4-dicarboxamide]
  IC50: 4.9 nM

## Cc1c(NC(=O)c2cc(C(=O)NS(C)(=O)=O)nc3ccccc23)c(C(F)(F)F)nn1Cc1ccc(C#N)cc1 [Example 426, N^4-[1-(4-cyanobenzyl)-5-methyl-3-(trifluoromethyl)-1H-pyrazol-4-yl]-N^2-(methylsulfonyl)quinoline-2,4-dicarboxamide]
  IC50: 2530 nM

## Cc1c(NC(=O)c2cc(C(N)=O)nc3cc(F)ccc23)c(C(F)(F)F)nn1Cc1ccc(C#N)nn1 [Example 427, N^4-{1-[(6-cyanopyridazin-3-yl)methyl]-5-methyl-3-(trifluoromethyl)-1H-pyrazol-4-yl}-7-fluoroquinoline-2,4-dicarboxamide]
DLD1 cells, 0.1 mM glucose, 1 μM Rotenone, 15 min, CellTiter-Glo ATP readout, IC50 values standardized to cytochalasin B IC50 values
  IC50: 78.3 nM

## C=CCNC(=O)c1ccc(Cn2nc(C)c(NC(=O)c3cc(C(F)(F)F)nc4ccc(Br)cc34)c2C)cc1 [Example 1018]
  IC50: 1.9 nM

## Cc1nn(Cc2ccc(C(=O)NC[C@@H](C)O)cc2)c(C)c1NC(=O)c1cc(C(F)(F)F)nc2ccc(Br)cc12 [Example 1019]
  IC50: 1.9 nM

## CCCNC(=O)c1ccc(Cn2nc(C)c(NC(=O)c3cc(C(F)(F)F)nc4ccc(Br)cc34)c2C)cc1 [Example 1020]
  IC50: 1.9 nM

## Cc1nn(Cc2ccc(C(=O)NCc3ccncc3)cc2)c(C)c1NC(=O)c1cc(C(F)(F)F)nc2ccc(Br)cc12 [Example 1021]
  IC50: 2.3 nM

## Cc1nn(Cc2ccc(C(=O)NCC#N)cc2)c(C)c1NC(=O)c1cc(C(F)(F)F)nc2ccc(Br)cc12 [Example 1022]
  IC50: 2.4 nM

## Cc1nn(Cc2ccc(C(=O)NC3CC3)cc2)c(C)c1NC(=O)c1cc(C(F)(F)F)nc2ccc(Br)cc12 [Example 1024]
  IC50: 2.7 nM

## COc1ccc(Cn2nc(C)c(NC(=O)c3cc(C(F)(F)F)nc4ccc(Br)cc34)c2C)cn1 [Example 1025]
  IC50: 2.8 nM

## COc1ccc(Cn2nc(C(F)(F)F)c(NC(=O)c3cc(C(F)(F)F)nc4ccc(Br)cc34)c2C)cn1 [Example 1027]
  IC50: 3 nM

## CCNC(=O)c1ccc(Cn2nc(C)c(NC(=O)c3cc(C(F)(F)F)nc4ccc(Br)cc34)c2C)cc1 [Example 1028]
  IC50: 3 nM

## Cc1nn(Cc2ccc(C(=O)NCCF)cc2)c(C)c1NC(=O)c1cc(C(F)(F)F)nc2ccc(Br)cc12 [Example 1030]
  IC50: 3.2 nM

## Cc1nn(Cc2ccc(C(=O)N3CCCC3)cc2)c(C)c1NC(=O)c1cc(C(F)(F)F)nc2ccc(Br)cc12 [Example 1033]
  IC50: 4.2 nM

## COc1ccc(Cn2nc(C(F)(F)F)c(NC(=O)c3cc(C(F)(F)F)nc4ccc(Br)cc34)c2C)cc1 [Example 1035]
  IC50: 5 nM

## CNC(=O)c1c(NC(=O)c2cc(C(F)(F)F)nc3ccc(Br)cc23)c(C)nn1Cc1ccc(F)cc1 [Example 1036]
  IC50: 5.1 nM

## Cc1nn(Cc2ccc(C(=O)N3CCC3)cc2)c(C)c1NC(=O)c1cc(C(F)(F)F)nc2ccc(Br)cc12 [Example 1037]
  IC50: 5.3 nM

## Cc1nn(Cc2ccc(C(=O)Nc3ccccc3C(N)=O)cc2)c(C)c1NC(=O)c1cc(C(F)(F)F)nc2ccc(Br)cc12 [Example 1038]
  IC50: 5.7 nM

## COc1ccc(Cn2nc(C)c(NC(=O)c3cc(C(F)(F)F)nc4ccc(Br)cc34)c2C)cc1F [Example 1039]
  IC50: 5.7 nM

## Cc1nn(Cc2ccc(C(=O)Nc3ccccc3Cl)cc2)c(C)c1NC(=O)c1cc(C(F)(F)F)nc2ccc(Br)cc12 [Example 1040]
  IC50: 6.7 nM

## Cc1nn(Cc2ccc(C(=O)Nc3ccccc3)cn2)c(C)c1NC(=O)c1cc(C(F)(F)F)nc2ccc(Br)cc12 [Example 1041]
  IC50: 8.6 nM

## CNC(=O)N(C)CCNC(=O)c1ccc(Cn2nc(C)c(NC(=O)c3cc(C(F)(F)F)nc4ccc(Br)cc34)c2C)cc1 [Example 1043]
  IC50: 8.8 nM

## Cc1nn(Cc2ccc(C(=O)NCCCC(=O)N(C)C)cc2)c(C)c1NC(=O)c1cc(C(F)(F)F)nc2ccc(Br)cc12 [Example 1044]
  IC50: 8.8 nM

## Cc1nn(Cc2ccc(C(=O)Nc3cccnc3)cc2)c(C)c1NC(=O)c1cc(C(F)(F)F)nc2ccc(Br)cc12 [Example 1045]
  IC50: 9.4 nM

## Cc1nn(Cc2ccc(C(=O)NC[C@H](C)O)cc2)c(C)c1NC(=O)c1cc(C(F)(F)F)nc2ccc(Br)cc12 [Example 1046]
  IC50: 9.6 nM

## Cc1nn(Cc2ccc(C(=O)Nc3nccs3)cc2)c(C)c1NC(=O)c1cc(C(F)(F)F)nc2ccc(Br)cc12 [Example 1047]
  IC50: 11.2 nM

## Cc1nn(Cc2ccc(O)cc2)c(C)c1NC(=O)c1cc(C(F)(F)F)nc2c(Cl)cc(Cl)cc12 [Example 1048]
  IC50: 11.5 nM

## Cc1nn(Cc2ccc(C(=O)NCCN3CC4(CCS4(=O)=O)C3)cc2)c(C)c1NC(=O)c1cc(C(F)(F)F)nc2ccc(Br)cc12 [Example 1049]
  IC50: 11.7 nM

## Cc1nn(Cc2ccc(C(=O)NCCCO)cc2)c(C)c1NC(=O)c1cc(C(F)(F)F)nc2ccc(Br)cc12 [Example 1051]
  IC50: 11.8 nM

## COc1cc(C(=O)Nc2c(C)nn(Cc3ccc(S(C)(=O)=O)cc3)c2C)c2ccccc2n1 [Example 1052]
  IC50: 13.1 nM

## Cc1nn(Cc2ccc(C(=O)N[C@H]3CC[C@H](O)CC3)cc2)c(C)c1NC(=O)c1cc(C(F)(F)F)nc2ccc(Br)cc12 [Example 1053]
  IC50: 13.7 nM

## COCCN(CCC#N)C(=O)c1ccc(Cn2nc(C)c(NC(=O)c3cc(C(F)(F)F)nc4ccc(Br)cc34)c2C)cc1 [Example 1054]
  IC50: 13.9 nM

## Cc1nn(Cc2ccc(C(=O)Nc3cc[nH]n3)cc2)c(C)c1NC(=O)c1cc(C(F)(F)F)nc2ccc(Br)cc12 [Example 1055]
  IC50: 14.4 nM

## Cc1c(NC(=O)c2cc(C(F)(F)F)nc3ccc(Br)cc23)c(C(F)(F)F)nn1Cc1ccc(C#N)nc1 [Example 1056]
  IC50: 15 nM

## Cc1nn(Cc2ccc(C(=O)NCC3CCCO3)cc2)c(C)c1NC(=O)c1cc(C(F)(F)F)nc2ccc(Br)cc12 (centres unmarked) [Example 1058]
  IC50: 15.3 nM

## Cc1nn(Cc2ccc(C(=O)NCC(F)(F)F)cc2)c(C)c1NC(=O)c1cc(C(F)(F)F)nc2ccc(Br)cc12 [Example 1059]
  IC50: 15.6 nM

## Cc1nn(Cc2ccc(C(=O)NCc3ccc(-c4nnn[nH]4)cc3)cc2)c(C)c1NC(=O)c1cc(C(F)(F)F)nc2ccc(Br)cc12 [Example 1060]
  IC50: 15.8 nM

## Cc1nn(Cc2ccc(C(=O)N[C@H]3CC[C@@H](O)CC3)cc2)c(C)c1NC(=O)c1cc(C(F)(F)F)nc2ccc(Br)cc12 [Example 1062]
  IC50: 16.4 nM

## COc1ccc(CCNC(=O)c2ccc(Cn3nc(C)c(NC(=O)c4cc(C(F)(F)F)nc5ccc(Br)cc45)c3C)cc2)cc1 [Example 1063]
  IC50: 16.8 nM

## Cc1nn(Cc2ccc(C(=O)Nc3ccccn3)cc2)c(C)c1NC(=O)c1cc(C(F)(F)F)nc2ccc(Br)cc12 [Example 1064]
  IC50: 18.6 nM

## Cc1c(NC(=O)c2cc(C(F)(F)F)nc3ccc(Br)cc23)c(C(F)(F)F)nn1Cc1ccc(C(=O)NCCO)cn1 [Example 1065]
  IC50: 18.7 nM

## Cc1nn(Cc2ccc(C(=O)Nc3cccc(Cl)c3)cc2)c(C)c1NC(=O)c1cc(C(F)(F)F)nc2ccc(Br)cc12 [Example 1066]
  IC50: 19.1 nM

## Cc1nn(Cc2ccc(C(=O)NCCC(N)=O)cc2)c(C)c1NC(=O)c1cc(C(F)(F)F)nc2ccc(Br)cc12 [Example 1067]
  IC50: 19.2 nM

## Cc1nn(Cc2ccc(C(=O)NCc3ccccn3)cc2)c(C)c1NC(=O)c1cc(C(F)(F)F)nc2ccc(Br)cc12 [Example 1068]
  IC50: 19.5 nM

## Cc1nn(Cc2ccc(C(=O)Nc3ccc(N(C)C)cc3)cc2)c(C)c1NC(=O)c1cc(C(F)(F)F)nc2ccc(Br)cc12 [Example 1069]
  IC50: 19.8 nM
